Measurements from patent publication US5026858A, “Piperidine derivative” (Walton S.A., priority 1976, dated 1991).
Where a name gives a salt, the structure may show the parent alone. Read-outs that look alike come from different tables or passages of the source.

Key:
[1] = target: T1, [3H]haloperidol binding, rat striatal membranes (Rattus norvegicus, UniProt P61169); assay: displacement of [3H]haloperidol from rat striatal membranes; conditions: Table 1, read-out: Displacement [3H]Haloperidol striatum: approximate KI
T1 construct: striatal and limbic forebrain membranes; from tissue; host or cells: rat striatal membranes
Description: (§1) ^(f) Approximate KI (nM) for displacement of [3Hhaloperidol from rat
(§2) striatal and limbic forebrain membranes.

[2] = test system: apomorphineinduced vomiting; assay: inhibition of apomorphine-induced vomiting in the dog (oral); format: in vivo; conditions: Canis lupus familiaris
Description: | ^(b) Approximate oral ED50 value for inhibition of | apomorphineinduced gnawing behaviour in the rat (mg kg^-1) and | vomiting in the dog (μg kg^-1) | ^(b) Approximate oral ED50 value for inhibition of | apomorphineinduced gnawing behaviour in the rat (mg kg^-1) and | vomiting in the dog (μg kg^-1)

[3] = target: T2, dopamine sensitive adenylate cyclase of rat straitum (Rattus norvegicus, UniProt P18901); assay: inhibition of dopamine sensitive adenylate cyclase of rat striatum; format: biochemical
T2 construct: adenylate cyclase of rat straitum; from tissue; host or cells: rat striatum

[4] = target: T3, [3H]haloperidol binding, rat limbic forebrain membranes (Rattus norvegicus, UniProt P61169); assay: displacement of [3H]haloperidol from rat limbic forebrain membranes; conditions: Table 1, read-out: Displacement [3H]Haloperidol limbic: approximate KI
T3 construct: striatal and limbic forebrain membranes; from tissue; host or cells: rat limbic forebrain membranes
Description: as §1, §2

[5] = test system: apomorphineinduced gnawing behaviour; assay: inhibition of apomorphine-induced gnawing behaviour in the rat (oral); format: in vivo
Description: | ^(b) Approximate oral ED50 value for inhibition of | apomorphineinduced gnawing behaviour in the rat (mg kg^-1) and | ^(b) Approximate oral ED50 value for inhibition of | apomorphineinduced gnawing behaviour in the rat (mg kg^-1) and […]

[6] = approximate ED50, Table 2, read-out: Antiapomorphine dog: approximate oral ED50 for inhibition of apomorphine-induced vomiting
[7] = rat striatum, Table 1, read-out: Dopamine sensitive aden-cyclase: approximate KI
[8] = approximate ED50, Table 2, read-out: Antiapomorphine rat: approximate oral ED50 for inhibition of apomorphine-induced gnawing
[9] = approximate ED50, Table 1, read-out: Anti-apomorphine dog: approximate oral ED50 for inhibition of apomorphine-induced vomiting
[10] = approximate ED50, Table 1, read-out: Anti-apomorphine rat: approximate oral ED50 for inhibition of apomorphine-induced gnawing

T2 sequence (P18901 whole entry): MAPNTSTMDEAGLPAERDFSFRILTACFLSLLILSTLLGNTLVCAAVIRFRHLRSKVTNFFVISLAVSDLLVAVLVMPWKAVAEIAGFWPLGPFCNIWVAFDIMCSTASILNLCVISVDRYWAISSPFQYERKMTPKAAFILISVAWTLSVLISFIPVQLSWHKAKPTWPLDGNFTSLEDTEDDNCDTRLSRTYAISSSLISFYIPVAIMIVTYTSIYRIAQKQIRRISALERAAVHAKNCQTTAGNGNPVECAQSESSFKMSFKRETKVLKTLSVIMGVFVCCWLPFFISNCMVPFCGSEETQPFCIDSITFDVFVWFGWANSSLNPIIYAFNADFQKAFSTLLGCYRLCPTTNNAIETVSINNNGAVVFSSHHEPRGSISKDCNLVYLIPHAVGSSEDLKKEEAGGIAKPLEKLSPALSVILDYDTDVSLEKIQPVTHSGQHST
T1 sequence (P61169 whole entry): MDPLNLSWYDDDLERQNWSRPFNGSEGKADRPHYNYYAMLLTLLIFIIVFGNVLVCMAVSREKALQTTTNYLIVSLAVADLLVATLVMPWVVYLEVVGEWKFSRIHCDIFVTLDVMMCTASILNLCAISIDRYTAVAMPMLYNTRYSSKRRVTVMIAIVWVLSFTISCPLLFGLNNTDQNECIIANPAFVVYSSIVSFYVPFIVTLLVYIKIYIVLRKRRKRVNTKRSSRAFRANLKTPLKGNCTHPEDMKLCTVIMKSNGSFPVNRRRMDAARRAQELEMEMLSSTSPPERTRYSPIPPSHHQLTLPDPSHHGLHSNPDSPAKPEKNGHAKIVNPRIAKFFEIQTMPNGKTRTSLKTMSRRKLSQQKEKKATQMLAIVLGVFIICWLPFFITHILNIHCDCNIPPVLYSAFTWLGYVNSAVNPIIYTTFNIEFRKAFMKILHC
T3 sequence (P61169 whole entry): as above

SMILES	ED50 [2, 6] [mg/kg]	ED50 [5, 8] [mg/kg]	ED50 [2, 9] [mg/kg]	ED50 [5, 10] [mg/kg]	also measured
COc1cc(N)c(Cl)cc1C(=O)NC1CCN(Cc2ccccc2)CC1 [Clebopride hydrochloride, reference compound]	0.04	2.5			Ki [1]: 25 nM; Ki [3, 7]: 5 nM; Ki [4]: 5 nM
CCOc1cc(N)c([N+](=O)[O-])cc1C(=O)NC1CCN(Cc2ccccc2)CC1 [EtO, NH2, NO2, H, phenyl, H, H, H, --, N-(1-benzylpiperid-4-yl)-2-ethoxy-4-amino-5-nitrobenzamide]			< 0.05		
COc1cc(N)c([N+](=O)[O-])cc1C(=O)NC1CCN(Cc2ccccc2)CC1 [MeO, NH2, NO2, H, phenyl, H, H, H, --, N-(1-Benzylpiperid-4-yl)-2-methoxy-4-amino-5-nitrobenzamide]			< 0.05	140	Ki [1]: 20 nM; Ki [3, 7]: 5 nM; Ki [4]: 1 nM
COc1cc(N)c([N+](=O)[O-])cc1C(=O)NC1CCN(CCc2ccccc2)CC1 [MeO, NH2, NO2, H, phenyl, H, H, H, CH2, N-(1-phenethylpiperid-4-yl)-2-methoxy-4-amino-5-nitrobenzamide]			> 5	800	Ki [1]: 10 nM; Ki [3, 7]: 1 nM; Ki [4]: 1 nM
CCN(CC)CCNC(=O)c1cc(Cl)c(N)cc1OC [Metoclopramide, reference compound]			0.45	13.6	Ki [3]: 60 nM
COc1cc(N)c([N+](=O)[O-])cc1C(=O)NC1CCN(Cc2ccc(Cl)cc2)CC1 [N-(1-p-chlorobenzylpiperid-4-yl)-2-methoxy-4-amino-5-nitrobenzamide]			< 0.05		
COc1cc(N)c([N+](=O)[O-])cc1C(=O)NC1CCN(Cc2ccc(C)cc2)CC1 [N-(1-p-methylbenzylpiperid-4-yl)-2-methoxy-4-amino-5-nitrobenzamide]			< 0.05		
CCN1CCCC1CNC(=O)c1cc(S(N)(=O)=O)ccc1OC (stereo not drawn) [Sulpiride, reference compound]			0.141	> 800	
COc1cc(N)c([N+](=O)[O-])cc1C(=O)NC1CCN(CC2=CCC=CC2)CC1 [compound 2, N-(1-Cyclohexa-1',4'-dienylmethylpiperid-4-yl)-2-methoxy-4-amino-5-nitrobenzamide]	< 0.05	60			
COc1cc(N)c([N+](=O)[O-])cc1C(=O)NC1CCN(CCC2=CCC=CC2)CC1 [compound 3, N-[1-(2-cyclohexa-1',4'-dienylethyl)piperid-4-yl]-2-methoxy-4-amino-5-nitrobenzamide]	> 0.5	> 300			
CCOc1cc(N)c([N+](=O)[O-])cc1C(=O)NC1CCN(CC2=CCC=CC2)CC1 [compound 4, N-(1-cyclohexa-1',4'-dienylmethylpiperid-4-yl)-2-ethoxy-4-amino-5-nitrobenzamide]	< 0.05	50			
CCOc1cc(N)c([N+](=O)[O-])cc1C(=O)NC1CCN(CC2=CCC(C)=CC2)CC1 [compound 5, N-[1-(4-methylcyclohexa-1,4-dienyl)methylpiperid-4-yl]-2-ethoxy-4-amino-5-nitrobenzamide]	< 0.05	40			
COc1cc(N)c([N+](=O)[O-])cc1C(=O)NC1CCN(CC2=CCC(C)=CC2)CC1 [compound 6, N-[1-(4-methylcyclohexa-1,4-dienyl)methylpiperid-4-yl]-2-methoxy-4-amino-5-nitrobenzamide]	< 0.05	35			
